Literature values, collected in US20120065140A1, “Biomarkers for the Diagnosis of Autoimmune Disease” (priority 2010, published 2012).

## CN(Cc1cnc2nc(N)nc(N)c2n1)c1ccc(C(=O)N[C@@H](CCC(=O)O)C(=O)O)cc1 [MTX, Methotrexate]
Rheumatoid arthritis
  onset of action: 4-6 weeks
Rheumatoid arthritis patients
  patients having some response: 70%
